This passage reports IC50 results from patent publication US20180148418A1, “AMIDO-SUBSTITUTED CYCLOHEXANE DERIVATIVES” (Bayer Pharma Aktiengesellschaft, priority 2015, published 2018).

This test has as its target T1, TNKS1 (Homo sapiens, UniProt O95271).
T1 construct: purchased BPS Bioscience, San Diego, USA 80579 (TNKS1 Histone Ribosylation Assay Kit)
T1 sequence (O95271 1-1327): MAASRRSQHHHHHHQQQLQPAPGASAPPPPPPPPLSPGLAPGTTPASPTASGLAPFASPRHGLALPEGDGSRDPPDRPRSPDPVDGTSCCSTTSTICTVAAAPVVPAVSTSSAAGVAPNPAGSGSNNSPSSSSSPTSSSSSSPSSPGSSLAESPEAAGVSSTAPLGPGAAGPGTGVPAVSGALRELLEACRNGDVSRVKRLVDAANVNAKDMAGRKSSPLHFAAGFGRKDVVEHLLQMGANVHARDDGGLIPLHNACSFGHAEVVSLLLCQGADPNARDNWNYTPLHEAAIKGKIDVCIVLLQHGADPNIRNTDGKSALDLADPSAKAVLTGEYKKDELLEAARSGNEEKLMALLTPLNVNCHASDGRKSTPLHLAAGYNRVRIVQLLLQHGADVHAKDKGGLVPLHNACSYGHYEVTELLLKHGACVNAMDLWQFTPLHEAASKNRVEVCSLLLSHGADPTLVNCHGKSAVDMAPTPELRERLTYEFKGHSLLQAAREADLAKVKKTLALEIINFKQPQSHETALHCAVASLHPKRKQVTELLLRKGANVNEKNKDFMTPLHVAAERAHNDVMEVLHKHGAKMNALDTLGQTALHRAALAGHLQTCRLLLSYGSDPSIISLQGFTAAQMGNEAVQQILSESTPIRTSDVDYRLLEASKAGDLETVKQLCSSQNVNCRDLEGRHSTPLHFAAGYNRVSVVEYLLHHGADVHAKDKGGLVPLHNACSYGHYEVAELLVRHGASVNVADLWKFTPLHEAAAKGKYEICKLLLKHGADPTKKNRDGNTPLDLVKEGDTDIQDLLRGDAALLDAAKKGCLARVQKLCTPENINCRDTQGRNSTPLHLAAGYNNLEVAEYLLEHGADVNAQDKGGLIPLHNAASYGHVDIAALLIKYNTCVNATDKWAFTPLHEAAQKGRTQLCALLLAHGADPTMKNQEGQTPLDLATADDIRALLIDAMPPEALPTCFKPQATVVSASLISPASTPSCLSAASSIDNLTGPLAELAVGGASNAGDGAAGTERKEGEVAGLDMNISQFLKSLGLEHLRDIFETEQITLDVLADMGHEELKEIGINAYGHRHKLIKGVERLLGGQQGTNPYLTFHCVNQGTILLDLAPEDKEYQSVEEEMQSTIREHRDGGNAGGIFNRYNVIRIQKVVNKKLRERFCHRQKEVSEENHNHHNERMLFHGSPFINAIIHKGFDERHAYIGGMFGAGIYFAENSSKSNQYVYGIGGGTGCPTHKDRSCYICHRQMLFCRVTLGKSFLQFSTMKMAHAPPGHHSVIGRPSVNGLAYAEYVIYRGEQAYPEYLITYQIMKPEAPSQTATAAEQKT
The experiment in a line: TNKS1 Assay B (auto-parsylation, [3H]-NAD+ SPA). It counts as biochemical. The note with it: 6 nM TNKS1, auto-parsylation, over night at room temperature.

Molecules are shown by their SMILES.

As to `O=C(N[C@H]1CC[C@H](C(=O)Nc2ccc(F)cc2Cl)CC1)c1cnc2ccc(N3CCOCC3)nn12` [Example 48, N-{trans-4-[(2-chloro-4-fluorophenyl)carbamoyl]cyclohexyl}-6-(morpholin-4-yl)imidazo[1,2-b]pyridazine-3-carboxamide], half-maximal inhibition (IC50) was put at 410 nM.
Then `CN1CCN(c2ccc3ncc(C(=O)N[C@H]4CC[C@H](C(=O)Nc5ccc(F)cc5Cl)CC4)n3n2)CC1` [Example 49, N-{trans-4-[(2-chloro-4-fluorophenyl)carbamoyl]cyclohexyl}-6-(4-methylpiperazin-1-yl)imidazo[1,2-b]pyridazine-3-carboxamide], with 400 nM.
Then `COc1ccc2ncc(C(=O)N[C@H]3CC[C@H](C(=O)Nc4ccc(F)cc4Cl)CC3)n2n1` [Example 50, N-{trans-4-[(2-chloro-4-fluorophenyl)carbamoyl]cyclohexyl}-6-methoxyimidazo[1,2-b]pyridazine-3-carboxamide], with 110 nM; and `O=C(N[C@H]1CC[C@H](C(=O)Nc2ccc(F)cc2Cl)CC1)c1cnc2ccc(N3CCCC3)nn12` [Example 51, N-{trans-4-[(2-chloro-4-fluorophenyl)carbamoyl]cyclohexyl}-6-(pyrrolidin-1-yl)imidazo[1,2-b]pyridazine-3-carboxamide], with 83 nM; and `CN(C)c1ccc2ncc(C(=O)N[C@H]3CC[C@H](C(=O)Nc4ccc(F)cc4Cl)CC3)n2n1` [Example 52, N-{trans-4-[(2-chloro-4-fluorophenyl)carbamoyl]cyclohexyl}-6-(dimethylamino)imidazo[1,2-b]pyridazine-3-carboxamide], with 22 nM.
With `CNc1ccc2ncc(C(=O)N[C@H]3CC[C@H](C(=O)Nc4ccc(F)cc4Cl)CC3)n2n1` [Example 53, N-{trans-4-[(2-chloro-4-fluorophenyl)carbamoyl]cyclohexyl}-6-(methylamino)imidazo[1,2-b]pyridazine-3-carboxamide], the IC50 (usually the concentration needed to halve the response being measured) is 150 nM.
As for `Cc1c(C(C)O)cnc2c(C(=O)N[C@H]3CC[C@H](C(=O)Nc4ccc(F)cc4Cl)CC3)cnn12` (stereo partly drawn) [Example 58, N-{trans-4-[(2-chloro-4-fluorophenyl)carbamoyl]cyclohexyl}-6-(1-hydroxyethyl)-7-methylpyrazolo[1,5-a]pyrimidine-3-carboxamide], the figure is 740 nM; as for `Nc1nn2cccnc2c1C(=O)N[C@H]1CC[C@H](C(=O)Nc2ccc(F)cc2Cl)CC1` [Example 59, 2-amino-N-{trans-4-[(2-chloro-4-fluorophenyl)carbamoyl]cyclohexyl}pyrazolo[1,5-a]pyrimidine-3-carboxamide], 950 nM; as for `Cc1cc(C(C)(C)C)n2ncc(C(=O)N[C@H]3CC[C@H](C(=O)Nc4ccc(F)cc4Cl)CC3)c2n1` [Example 60, 7-tert-butyl-N-{trans-4-[(2-chloro-4-fluorophenyl)carbamoyl]cyclohexyl}-5-methylpyrazolo[1,5-a]pyrimidine-3-carboxamide], more than 10000 nM.
Then `Cc1cnc2c(C(=O)N[C@H]3CC[C@H](C(=O)Nc4ccc(F)cc4Cl)CC3)cnn2c1` [Example 61, N-{trans-4-[(2-chloro-4-fluorophenyl)carbamoyl]cyclohexyl}-6-methylpyrazolo[1,5-a]pyrimidine-3-carboxamide], with 120 nM.
Then `Cc1cc(C2CC2)nc2c(C(=O)N[C@H]3CC[C@H](C(=O)Nc4ccc(F)cc4Cl)CC3)cnn12` [Example 62, N-{trans-4-[(2-chloro-4-fluorophenyl)carbamoyl]cyclohexyl}-5-cyclopropyl-7-methylpyrazolo[1,5-a]pyrimidine-3-carboxamide], with more than 10000 nM; and `CNC(=O)c1nc[nH]c1C(=O)N[C@H]1CC[C@H](C(=O)Nc2cc(C)c(F)cc2Cl)CC1` [Example 63, N^5-{trans-4-[(2-chloro-4-fluoro-5-methylphenyl)carbamoyl]cyclohexyl}-N^4-methyl-1H-imidazole-4,5-dicarboxamide], with 57 nM.
In turn, `Cc1cc(NC(=O)[C@H]2CC[C@H](NC(=O)c3[nH]cnc3C(=O)NCC3CCCO3)CC2)c(Cl)cc1F` (stereo partly drawn) [Example 64, N^5-{trans-4-[(2-chloro-4-fluoro-5-methylphenyl)carbamoyl]cyclohexyl}-N^4-(tetrahydrofuran-2-ylmethyl)-1H-imidazole-4,5-dicarboxamide] showed an IC50 of 59 nM.
As for `COCC(C)NC(=O)c1nc[nH]c1C(=O)N[C@H]1CC[C@H](C(=O)Nc2c(F)cc(F)cc2Cl)CC1` (stereo partly drawn) [Example 65, N^5-{trans-4-[(2-chloro-4,6-difluorophenyl)carbamoyl]cyclohexyl}-N^4-(1-methoxypropan-2-yl)-1H-imidazole-4,5-dicarboxamide], the figure is 170 nM; as for `COC[C@H](C)NC(=O)c1nc[nH]c1C(=O)N[C@H]1CC[C@H](C(=O)Nc2c(F)cc(F)cc2Cl)CC1` [Example 66, N^5-{trans-4-[(2-chloro-4,6-difluorophenyl)carbamoyl]cyclohexyl}-N^4-[(2S)-1-methoxypropan-2-yl]-1H-imidazole-4,5-dicarboxamide], 310 nM; as for `COC[C@@H](C)NC(=O)c1nc[nH]c1C(=O)N[C@H]1CC[C@H](C(=O)Nc2c(F)cc(F)cc2Cl)CC1` [Example 67, N^5-{trans-4-[(2-chloro-4,6-difluorophenyl)carbamoyl]cyclohexyl}-N^4-[(2R)-1-methoxypropan-2-yl]-1H-imidazole-4,5-dicarboxamide], 250 nM.
Regarding `COC(C)CNC(=O)c1nc[nH]c1C(=O)N[C@H]1CC[C@H](C(=O)Nc2c(F)cc(F)cc2Cl)CC1` (stereo partly drawn) [Example 68, N^5-{trans-4-[(2-chloro-4,6-difluorophenyl)carbamoyl]cyclohexyl}-N^4-(2-methoxypropyl)-1H-imidazole-4,5-dicarboxamide], the IC50 came to 60 nM.
Then `O=C(NCC1CCCO1)c1nc[nH]c1C(=O)N[C@H]1CC[C@H](C(=O)Nc2c(F)cc(F)cc2Cl)CC1` (stereo partly drawn) [Example 69, N^5-{trans-4-[(2-chloro-4,6-difluorophenyl)carbamoyl]cyclohexyl}-N^4-(tetrahydrofuran-2-ylmethyl)-1H-imidazole-4,5-dicarboxamide], with 57 nM.
As for `O=C(NC[C@H]1CCCO1)c1nc[nH]c1C(=O)N[C@H]1CC[C@H](C(=O)Nc2c(F)cc(F)cc2Cl)CC1` [Example 70, N^5-{trans-4-[(2-chloro-4,6-difluorophenyl)carbamoyl]cyclohexyl}-N^4-[(2R)-tetrahydrofuran-2-ylmethyl]-1H-imidazole-4,5-dicarboxamide], the figure is 78 nM.
Then `O=C(N[C@H]1CC[C@H](C(=O)Nc2ccc(F)cc2Cl)CC1)c1[nH]cnc1C(=O)N1CC(F)(F)C1` [Example 72, N-{trans-4-[(2-chloro-4-fluorophenyl)carbamoyl]cyclohexyl}-4-[(3,3-difluoroazetidin-1-yl)carbonyl]-1H-imidazole-5-carboxamide], with 55 nM; and `COC(C)(C)CNC(=O)c1nc[nH]c1C(=O)N[C@H]1CC[C@H](C(=O)Nc2ccc(F)cc2Cl)CC1` [Example 73, N^5-{trans-4-[(2-chloro-4-fluorophenyl)carbamoyl]cyclohexyl}-N^4-(2-methoxy-2-methylpropyl)-1H-imidazole-4,5-dicarboxamide], with 270 nM; and `O=C(NCCC1CC1)c1nc[nH]c1C(=O)N[C@H]1CC[C@H](C(=O)Nc2ccc(F)cc2Cl)CC1` [Example 74, N^5-{trans-4-[(2-chloro-4-fluorophenyl)carbamoyl]cyclohexyl}-N^4-(2-cyclopropylethyl)-1H-imidazole-4,5-dicarboxamide], with 84 nM.
`CC(C)(O)CNC(=O)c1nc[nH]c1C(=O)N[C@H]1CC[C@H](C(=O)Nc2ccc(F)cc2Cl)CC1` [Example 75, N^5-{trans-4-[(2-chloro-4-fluorophenyl)carbamoyl]cyclohexyl}-N^4-(2-hydroxy-2-methylpropyl)-1H-imidazole-4,5-dicarboxamide] registered an IC50 of 84 nM.
As for `CC(C)OCCNC(=O)c1nc[nH]c1C(=O)N[C@H]1CC[C@H](C(=O)Nc2ccc(F)cc2Cl)CC1` [Example 76, N^5-{trans-4-[(2-chloro-4-fluorophenyl)carbamoyl]cyclohexyl}-N^4-(2-isopropoxyethyl)-1H-imidazole-4,5-dicarboxamide], the figure is 94 nM.
